Experimental data from US11420973B2, “Amide substituted indole compounds useful as TLR inhibitors” (BRISTOL-MYERS SQUIBB COMPANY, priority 2017, dated 2022).

Columns and labels:
[1] = biological target: human TLR7 (Homo sapiens (Human), UniProt Q9NYK1); assay: TLR7 inhibition reporter assay (HEK-Blue SEAP reporter, gardiquimod stimulation); format: cell-based; settings: HEK-Blue cells overexpressing human TLR7, gardiquimod 7.5 μM
[2] = biological target: human TLR9 (Homo sapiens (Human), UniProt Q9NR96); assay: TLR9 inhibition reporter assay (HEK-Blue SEAP reporter, ODN2006 stimulation); settings: read-out: TLR9 IC50; HEK-Blue cells overexpressing human TLR9, ODN2006 5 nM, SEAP reporter;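 further: SEAP reporter under IFN-β minimal promoter with five NF-κB and AP-1 sites, 22 h incubation, compounds 0.05 nM–50 µM, inhibition relative to agonist plus DMSO versus known inhibitor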
Chain of human TLR9 (Q9NR96 26-1032): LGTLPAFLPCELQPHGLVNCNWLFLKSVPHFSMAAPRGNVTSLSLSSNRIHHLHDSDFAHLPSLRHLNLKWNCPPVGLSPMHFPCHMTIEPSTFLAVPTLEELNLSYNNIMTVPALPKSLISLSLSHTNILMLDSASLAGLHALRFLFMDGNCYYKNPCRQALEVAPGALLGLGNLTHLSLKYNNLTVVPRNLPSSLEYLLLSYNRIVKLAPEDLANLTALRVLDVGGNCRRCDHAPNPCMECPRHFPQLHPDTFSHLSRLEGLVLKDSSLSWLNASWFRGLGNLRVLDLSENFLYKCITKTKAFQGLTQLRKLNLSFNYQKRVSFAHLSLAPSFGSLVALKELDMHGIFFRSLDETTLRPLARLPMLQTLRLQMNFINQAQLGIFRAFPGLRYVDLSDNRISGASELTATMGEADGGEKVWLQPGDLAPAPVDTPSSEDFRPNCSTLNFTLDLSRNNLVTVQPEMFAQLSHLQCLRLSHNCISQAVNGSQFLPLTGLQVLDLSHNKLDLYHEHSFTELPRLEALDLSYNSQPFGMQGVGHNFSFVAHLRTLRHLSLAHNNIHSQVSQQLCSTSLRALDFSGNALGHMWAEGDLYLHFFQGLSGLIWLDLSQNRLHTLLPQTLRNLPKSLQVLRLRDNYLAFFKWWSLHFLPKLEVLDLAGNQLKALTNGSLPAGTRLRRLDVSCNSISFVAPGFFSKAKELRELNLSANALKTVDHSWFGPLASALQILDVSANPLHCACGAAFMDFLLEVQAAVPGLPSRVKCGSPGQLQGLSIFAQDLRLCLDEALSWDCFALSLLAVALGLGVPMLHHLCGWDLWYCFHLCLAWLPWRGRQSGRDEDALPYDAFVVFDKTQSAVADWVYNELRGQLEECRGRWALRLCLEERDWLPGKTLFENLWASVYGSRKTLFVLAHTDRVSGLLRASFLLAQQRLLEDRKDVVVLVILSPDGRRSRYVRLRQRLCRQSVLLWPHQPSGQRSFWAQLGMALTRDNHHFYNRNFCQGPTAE

[3] = biological target: human TLR8 (Homo sapiens (Human), UniProt Q9NR97); assay: TLR8 inhibition reporter assay (HEK-Blue SEAP reporter, R848 stimulation); settings: read-out: TLR8 IC50; HEK-Blue cells overexpressing human TLR8, R848 15.9 μM, SEAP reporter;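 further: SEAP driven by IFN-β minimal promoter with NF-κB and AP-1 sites, 22 h incubation, compounds 0.05 nM–50 µM, inhibition scaled between agonist plus DMSO and reference inhibitor wells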
Chain of human TLR8 (Q9NR97 27-1041): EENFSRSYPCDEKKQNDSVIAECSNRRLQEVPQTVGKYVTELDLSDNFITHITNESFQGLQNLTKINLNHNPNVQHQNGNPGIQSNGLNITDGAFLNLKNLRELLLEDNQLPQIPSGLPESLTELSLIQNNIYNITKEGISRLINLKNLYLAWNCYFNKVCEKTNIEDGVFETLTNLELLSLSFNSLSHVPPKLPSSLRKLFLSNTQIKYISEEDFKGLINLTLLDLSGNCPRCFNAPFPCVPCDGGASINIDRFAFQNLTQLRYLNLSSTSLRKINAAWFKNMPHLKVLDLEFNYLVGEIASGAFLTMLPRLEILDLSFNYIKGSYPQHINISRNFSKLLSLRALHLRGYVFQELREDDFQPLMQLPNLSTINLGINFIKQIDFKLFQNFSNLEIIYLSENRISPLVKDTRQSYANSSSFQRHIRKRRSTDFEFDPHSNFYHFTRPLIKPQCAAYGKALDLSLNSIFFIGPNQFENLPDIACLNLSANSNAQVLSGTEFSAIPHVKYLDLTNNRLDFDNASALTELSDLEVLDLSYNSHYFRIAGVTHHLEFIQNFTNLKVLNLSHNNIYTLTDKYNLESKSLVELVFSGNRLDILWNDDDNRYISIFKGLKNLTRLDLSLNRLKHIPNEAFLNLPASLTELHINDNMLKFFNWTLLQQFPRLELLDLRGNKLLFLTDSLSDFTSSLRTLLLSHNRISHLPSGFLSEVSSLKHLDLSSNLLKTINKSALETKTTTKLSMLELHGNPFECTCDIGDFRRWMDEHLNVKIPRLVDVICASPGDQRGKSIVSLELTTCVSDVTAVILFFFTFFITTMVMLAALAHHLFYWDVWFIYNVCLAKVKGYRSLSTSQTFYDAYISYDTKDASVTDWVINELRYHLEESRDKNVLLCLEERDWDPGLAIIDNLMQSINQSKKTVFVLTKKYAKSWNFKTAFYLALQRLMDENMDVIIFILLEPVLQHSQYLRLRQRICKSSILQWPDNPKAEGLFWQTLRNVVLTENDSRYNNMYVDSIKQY
Method: HEK-Blue™-cells (Invivogen) overexpressing human TLR7, TLR8 or TLR9 receptors were used for screening inhibitors of these receptors using an inducible SEAP (secreted embryonic alkaline phosphatase) reporter gene under the control of the IFN-β minimal promoter fused to five NF-κB and AP-1-binding sites. Briefly, cells are seeded into Greiner 384 well plates (15000 cells per well for TLR7, 20,000 for TLR8 and 25,000 for TLR9) and then treated with test compounds in DMSO to yield a final dose response concentration range of 0.05 nM-50 μM. After a 30 minute compound pre-treatment at room temperature, the cells are then stimulated with a TLR7 ligand (gardiquimod at a final concentration of 7.5 μM), TLR8 ligand (R848 at a final concentration of 15.9 μM) or TLR9 ligand (ODN2006 at a final concentration of 5 nM) to activate NF-κB and AP-1 which induce the production of SEAP. After a 22 hour incubation at 37° C., 5% CO2, SEAP levels are determined with the addition of HEK-Blue™ Detection reagent (Invivogen), a cell culture medium that allows for detection of SEAP, according to manufacturer's specifications.

Chain of human TLR7 (Q9NYK1 27-1049): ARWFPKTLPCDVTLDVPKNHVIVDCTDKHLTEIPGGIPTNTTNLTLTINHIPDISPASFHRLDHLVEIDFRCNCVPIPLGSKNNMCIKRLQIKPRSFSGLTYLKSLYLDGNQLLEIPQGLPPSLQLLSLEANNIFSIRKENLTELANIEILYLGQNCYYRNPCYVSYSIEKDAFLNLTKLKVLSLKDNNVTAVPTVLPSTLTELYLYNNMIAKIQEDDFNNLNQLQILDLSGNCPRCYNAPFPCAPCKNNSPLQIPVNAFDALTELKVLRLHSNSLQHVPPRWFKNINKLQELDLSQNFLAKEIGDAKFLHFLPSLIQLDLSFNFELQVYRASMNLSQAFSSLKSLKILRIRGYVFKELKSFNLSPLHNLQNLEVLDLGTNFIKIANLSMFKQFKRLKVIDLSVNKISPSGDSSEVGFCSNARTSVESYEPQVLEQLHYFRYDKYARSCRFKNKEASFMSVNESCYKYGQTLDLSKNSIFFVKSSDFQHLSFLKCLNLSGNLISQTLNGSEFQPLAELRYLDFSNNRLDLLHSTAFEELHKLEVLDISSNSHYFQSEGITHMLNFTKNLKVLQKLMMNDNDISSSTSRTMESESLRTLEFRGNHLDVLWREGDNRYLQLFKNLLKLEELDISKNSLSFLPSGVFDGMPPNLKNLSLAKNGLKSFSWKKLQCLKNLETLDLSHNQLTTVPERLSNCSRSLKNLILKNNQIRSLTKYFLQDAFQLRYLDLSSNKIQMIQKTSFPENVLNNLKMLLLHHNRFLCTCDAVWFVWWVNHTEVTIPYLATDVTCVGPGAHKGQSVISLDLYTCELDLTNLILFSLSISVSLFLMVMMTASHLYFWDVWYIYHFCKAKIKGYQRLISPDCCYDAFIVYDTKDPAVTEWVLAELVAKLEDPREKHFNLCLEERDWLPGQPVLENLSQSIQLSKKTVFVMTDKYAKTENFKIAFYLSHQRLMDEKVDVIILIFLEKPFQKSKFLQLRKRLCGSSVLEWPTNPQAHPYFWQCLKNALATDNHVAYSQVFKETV

| Structure (SMILES) | IC50 [1] | IC50 [2] | IC50 [3] |
| --- | --- | --- | --- |
| CCc1c(-c2ccc(OC)c(OC)c2)[nH]c2ccc(C(=O)N3CCN(CCN4CCOCC4)CC3)cc12 [Example 42, (2-(3,4-dimethoxyphenyl)-3-ethyl-1H-indol-5-yl)(4-(2-morpholinoethyl)piperazin-1-yl)methanone] | 751 nM | 9670 nM | 15 nM |
| Cc1cc(-c2[nH]c3ccc(C(=O)N(C)C4CCN(C)CC4)cc3c2C(C)C)cc(C)n1 [Example 101, 2-(2,6-dimethylpyridin-4-yl)-3-isopropyl-N-methyl-N-(1-methylpiperidin-4-yl)-1H-indole-5-carboxamide] | 1.9 nM | 776 nM | 0.34 nM |
| CCc1c(-c2ccc(OC)c(OC)c2)[nH]c2ccc(C(=O)NCc3ccc(N)cc3)cc12 [Example 52, N-(4-aminobenzyl)-2-(3,4-dimethoxyphenyl)-3-ethyl-1H-indole-5-carboxamide] | 2380 nM | > 50000 nM | 243 nM |
| CCc1c(-c2ccc(OC)c(OC)c2)[nH]c2ccc(C(=O)N(CC)CCN(C)C)cc12 [Example 73, 2-(3,4-dimethoxyphenyl)-N-(2-(dimethylamino)ethyl)-N,3-diethyl-1H-indole-5-carboxamide] | 25 nM | 4340 nM | 4 nM |
| Cc1cc(-c2[nH]c3ccc(C(=O)N(C)CCc4ccccc4)cc3c2C(C)C)cc(C)n1 [Example 102, 2-(2,6-dimethylpyridin-4-yl)-3-isopropyl-N-methyl-N-phenethyl-1H-indole-5-carboxamide] | 185 nM | 5060 nM | 418 nM |
| Cc1cc(-c2[nH]c3ccc(C(C)C(=O)N[C@@H]4CCCC[C@H]4N)cc3c2C(C)C)ccn1 (stereo partly drawn) [Example 216, N-((1R,2R)-2-aminocyclohexyl)-2-(3-isopropyl-2-(2-methylpyridin-4-yl)-1H-indol-5-yl)propanamide] | 131 nM | 1060 nM | 159 nM |
| CCc1c(-c2ccc(OC)c(OC)c2)[nH]c2ccc(C(=O)NC3CCCCCC3)cc12 [Example 20, N-cycloheptyl-2-(3,4-dimethoxyphenyl)-3-ethyl-1H-indole-5-carboxamide] | 2310 nM | > 50000 nM | 858 nM |
| Cc1cc(-c2[nH]c3ccc(C(C)(C)C(=O)N4CC5(CCNCC5)C4)cc3c2C(C)C)ccn1 [Example 179, 2-(3-isopropyl-2-(2-methylpyridin-4-yl)-1H-indol-5-yl)-2-methyl-1-(2,7-diazaspiro[3.5]nonan-2-yl)propan-1-one] | 35 nM | 4930 nM | 1130 nM |

Further molecules by falling IC50 [1], results first:

| IC50 [1] | IC50 [2] | IC50 [3] | Structure (SMILES) |
| --- | --- | --- | --- |
| 1660 nM | 13800 nM | 260 nM | CCc1c(-c2ccc(OC)c(OC)c2)[nH]c2ccc(C(=O)NC[C@@H](F)C(C)(C)O)cc12 [Example 18, (R)-2-(3,4-dimethoxyphenyl)-3-ethyl-N-(2-fluoro-3-hydroxy-3-methylbutyl)-1H-indole-5-carboxamide] |
| 1120 nM | 16800 nM | 897 nM | CCc1c(-c2ccc(OC)c(OC)c2)[nH]c2ccc(C(=O)N3CCCC(C(=O)N(CC)CC)C3)cc12 (stereo not drawn) [Example 33, 1-(2-(3,4-dimethoxyphenyl)-3-ethyl-1H-indole-5-carbonyl)-N,N-diethylpiperidine-3-carboxamide] |
| 148 nM | 1370 nM | 174 nM | Cc1cc(-c2[nH]c3ccc(C(C)C(=O)N[C@@H]4CCCC[C@H]4N)cc3c2C(C)C)ccn1 (stereo partly drawn) [Example 215, N-((1R,2R)-2-aminocyclohexyl)-2-(3-isopropyl-2-(2-methylpyridin-4-yl)-1H-indol-5-yl)propanamide] |
| 25 nM | 1140 nM | 154 nM | Cc1cc(-c2[nH]c3ccc(C(C)(C)C(=O)NC4CCN(C(C)C)CC4)cc3c2C(C)C)ccn1 [Example 139, 2-(3-isopropyl-2-(2-methylpyridin-4-yl)-1H-indol-5-yl)-N-(1-isopropylpiperidin-4-yl)-2-methylpropanamide] |
